Laboratory results taken from ChEMBL document CHEMBL4808236, “New phorbol ester derivatives as potent anti-HIV agents” (Bioorg Med Chem Lett, 2021).

Columns and labels:
MRC5 = experiment: Cytotoxicity against human MRC5 cells assessed as inhibition of cell viability; type: cell-based
KB = experiment: Antiproliferative activity against human KB cells assessed as reduction in cell viability measured after 72 hrs by SRB assay; type: functional, cell-based
[1] = Antiproliferative activity against human KB-VIN cells assessed as reduction in cell viability after 72 hrs by SRB assay; type: functional, cell-based; details: KBVIN
MCF7 = experiment: Antiproliferative activity against human MCF7 cells assessed as reduction in cell viability measured after 72 hrs by SRB assay; type: functional, cell-based; details: MCF7, 72 h
[2] = system: Human immunodeficiency virus 1; experiment: Antiviral activity against HIV-1 NL4-3 infected in human MT4 cells assessed as reduction in p24 production treated at 48 hrs post-infection and measured on day 4 post-viral infection by ELISA; type: functional, organism-based; details: Human immunodeficiency virus 1, NL4-3, MT4
A549 = experiment: Antiproliferative activity against human A549 cells assessed as reduction in cell viability measured after 72 hrs by SRB assay; details: A549, 72 h
[3] = Selectivity index, ratio of CC75 for cytotoxicity against human MT4 cells to IC50 for antiviral activity against HIV-1 NL4-3 infected in human MT4 cells; type: toxicity, cell-based; details: read-out: Selectivity Index
MDA-MB-231 = experiment: Antiproliferative activity against human MDA-MB-231 cells assessed as reduction in cell viability measured after 72 hrs by SRB assay; type: functional, cell-based; details: MDA-MB-231, 72 h
MT4 = experiment: Cytotoxicity against human MT4 cells assessed as reduction in cell viability by CellTiter-Glo luminescence assay; type: cell-based

Structure (SMILES)	IC50 (KB) [µM]	IC50 (MCF7) [µM]	IC50 [2] [µM]	IC50 (A549) [µM]	IC50 (MDA-MB-231) [µM]	IC50 (MRC5) [µM]	IC50 [1] [µM]	selectivity ratio [3]	CC75 (MT4) [µM]
CC1=C[C@H]2[C@@]3(O)[C@H](C)[C@@H](OC(=O)CCc4ccccc4)[C@]4(OC(=O)CCc5ccccc5)[C@H]([C@@H]3C=C(CO)C[C@]2(O)C1=O)C4(C)C	8.31	10.5	0.00049	> 10	> 10	11.4	> 10	> 10000	> 5
CC1=C[C@H]2[C@@]3(O)[C@H](C)[C@@H](OC(=O)/C=C/c4ccccc4)[C@]4(OC(=O)/C=C/c5ccccc5)[C@H]([C@@H]3C=C(CO)C[C@]2(O)C1=O)C4(C)C	6.45	6.85	0.00921	4.7	8.29	36.2	6.82	> 500	> 5
CC/C=C/C/C=C/C/C=C/C/C=C/C/C=C/CCCC(=O)O[C@]12C([C@@H]3C=C(CO)C[C@]4(O)C(=O)C(C)=C[C@H]4[C@@]3(O)[C@H](C)[C@H]1O)C2(C)C (single isomer, unassigned)	> 10	> 10	0.0623	0.09	1.99		> 10	> 50	> 5
CC/C=C/C/C=C/C/C=C/C/C=C/C/C=C/CCCC(=O)O[C@@H]1[C@@H](C)[C@@]2(O)[C@@H](C=C(CO)C[C@]3(O)C(=O)C(C)=C[C@@H]23)[C@@H]2C(C)(C)[C@]12OC(=O)CCC	> 10	> 10	0.00227	> 10	> 10		> 10	> 1500	> 5

Continued, in another order:

IC50 (KB) [µM]	IC50 (MCF7) [µM]	IC50 [2] [µM]	IC50 (A549) [µM]	IC50 (MDA-MB-231) [µM]	Structure (SMILES)	IC50 (MRC5) [µM]	IC50 [1] [µM]	selectivity ratio [3]	CC75 (MT4) [µM]
> 10	> 10	0.00075	> 10	> 10	CC(=O)O[C@@]12[C@H](OC(=O)/C=C/c3ccc(Cl)cc3)[C@@H](C)[C@@]3(O)[C@@H](C=C(CO)C[C@]4(O)C(=O)C(C)=C[C@@H]34)[C@@H]1C2(C)C	7.13	> 10	> 5000	> 5
> 10	> 10	0.0009	> 10	> 10	CCCC(=O)O[C@]12C([C@@H]3C=C(CO)C[C@]4(O)C(=O)C(C)=C[C@H]4[C@@]3(O)[C@H](C)[C@H]1OC(=O)/C=C/c1ccccc1)C2(C)C (single isomer, unassigned)	8.71	> 10	> 5000	> 5
